Structures are written as SMILES.

Assay [1] concerns C3/C3 homozygous mutant cell line. Briefly: Callus growth test. The assay is classed as cell-based, Nicotiana tabacum. Conditions: 10 ppb herbicide. On the procedure:
(§1) Callus growth tests were conducted substantially according to the following procedure. Approximately 50 mg callus tissue, grown on non-selective media, was spread over 7 cm diameter paper filter discs (Whatman No. 1), which were placed on the medium surface of petri dishes containing C1 agar media and varying concentrations of chlorsulfuron. The resulting cultures were incubated for 14 days at 25±1°, under fluorescent lamps programmed to provide a 16-hour photoperiod per day. At the conclusion of the incubation period, tissue was scraped from each filter disc and weighed. The final fresh weights were recorded, and means and standard errors of the means determined for all cases. The significance of differences between responses of individual cell lines to various concentrations of chlorsulfuron was determined at a probability level of 5% by a t-test for populations having different standard deviations, as described by Snedecor, et al., Statistical Methods (Iowa State University Press, Ames, Iowa, (1967), pp. 114-116).
(§2) A series of experiments was performed to investigate further the cross-resistance of various resistant cell lines to other herbicidally-effective sulfonamides. First, several homozygous mutant cell lines were evaluated for resistance to sulfometuron-methyl and chlorsulfuron by callus growth tests, performed substantially similarly to the callus growth experiments previously described. In these experiments, callus cultures were derived from R1 plants, which constitute the progeny produced by self-fertilization of a regenerated plant.

The test system of assay [2] is C4/C4 homozygous mutant cell line. Kind of assay: Callus growth test. The assay is classed as cell-based, Nicotiana tabacum. The following applies: 10 ppb herbicide. On the procedure:
as §1, §2

Assay [3] concerns Normal (H1) cell line. Briefly: Callus growth test. The assay is classed as cell-based, Nicotiana tabacum. The following applies: for % of control fresh weight / Fr. Wt.: 10 ppb herbicide, H1 (Table 4). On the procedure: as §1, §2
Assay [4] concerns S1/S1 homozygous mutant cell line. Kind of assay: Callus growth test. The assay is classed as cell-based, Nicotiana tabacum. The following applies: 10 ppb herbicide. On the procedure:
as §1, §2

For assay [5], the system named is S4/S4 homozygous mutant cell line. Kind of assay: Callus growth test. The assay is classed as cell-based, Nicotiana tabacum. The following applies: for % of control fresh weight / Fr. Wt.: 10 ppb herbicide, S4/S4 (Table 4). On the procedure:
as §1, §2

Assay [6] relates to S5/S5 homozygous mutant cell line. Kind of assay: Callus growth test. The following applies: 10 ppb herbicide. The assay is classed as cell-based, Nicotiana tabacum. How it is done:
as §1, §2

Assay [7] concerns S6/S6 homozygous mutant cell line. Briefly: Callus growth test. The assay is classed as cell-based, Nicotiana tabacum. Conditions: 10 ppb herbicide. On the procedure:
as §1, §2

For assay [8], the system named is acetolactate synthase (ALS), Isolate 16 (S4/S4) extract. Kind of assay: ALS activity assay in cell extracts. The assay is classed as biochemical, Nicotiana tabacum. The following applies: for Uninhibited activity (%) in the Presence of Chlorsulfuron: Isolate 16 (S4/S4). How it is done: (§3) Cell suspension cultures of normal (H1) and homozygous mutant (Isolate 16) cell lines were washed in C1 liquid medium. After washing, cells were extracted in a 100 mM potassium phosphate buffer (pH 7.5) containing 0.5 mM MgCl2, 1 mM sodium pyruvate, 0.5 mM thiamine pyrophosphate, 10 micromolar flavine-adenine dinucleotide (FAD) and 10 percent (by volume) glycerol. Polyclar AT (BDH Chemicals Ltd) was added to a final concentration of 250 mg per gram fresh weight of tissue. After centrifugation at 27,000xg for 15 minutes at 4°, an equal volume of a saturated solution of amminium sulfate was added to the supernatant fraction. The resultant precipitate (representing a 0 to 50 percent ammonium sulfate fraction) was redissolved in 100 mM potassium phosphate buffer (pH 7.5) containing 0.5 mM MgCl2, 1 mM sodium pyruvate, and salts were removed by passage through a Sephadex G-25 (Pharmacia PD-10) column.
(§4) ALS activity was assayed in a total volume of 500 microliters containing 100 microliters of the column eluate, 65 mM potassium phosphate buffer (pH 7.5) containing 10 mM MgCl2, 40 mM sodium pyruvate, 250 micromolar thiamine pyrophosphate, 23 micromolar FAD, and 1, 5, 10, 50, 100, 500 or 1000 ppb chlorsulfuron or sulfometuron-methyl. After incubation at 30° for 90 minutes, 250 microliters of 6N H2 SO4 was added to each assay tube, and the tubes were incubated at 55° for 10 minutes to terminate the enzymatic reaction and achieve complete conversion of acetolactate to acetoin. Acetoin content was then measured by a modification of the procedure described by Westerfield, J. Biol. Chem. 161:495 (1945). To each tube was added sequentially 100 microliters 50 percent NaOH, 150 microliters 0.5 percent creatine, and 150 microliters 5 percent alpha-napthol (in 2.5N NaOH). Color development was accelerated by incubation at 55° for 10 minutes. Tubes were then centrifuged, and the optical density was read at 530 nm. Background optical densities, which were subtracted from the optical density values of the reactions, were determined for each extract from parallel assays to which the enzyme extract was added after the addition of 6N H2 SO4. Protein concentrations were measured with Bio-Rad Protein Assay reagent with bovine serum albumin as a standard. Data points and specific activities, which are set forth below and in FIG. 2, represent the average values of at least three independent determinations. ALS activities are presented in FIG. 2 as percent activity in the absence of herbicide.
(§5) Responses to chlorsulfuron were determined for ALS activities in extracts of cells suspension cultures derived from nine individuals that differed with resepct to the S4 mutation. As described above, these individuals were produced by self-fertilization of an S4/+ heterozygote, and their genotypes were established by means of progeny analysis. Callus and plant phenotypes were determined by growth responses of cell cultures and seedlings, respectively, on herbicide-supplemented medium. […] In contrast, all individuals homozygous for the S4 mutation contained a highly resistant form of the enzyme. […] The correlation between both callus and plant phenotype and the response of ALS activity in vitro to the herbicide is both absolute and quantitative.

Assay [9] has as its system acetolactate synthase (ALS), Isolate 9 (S4/+) extract. Kind of assay: ALS activity assay in cell extracts. The assay is classed as biochemical, Nicotiana tabacum. On the procedure: as §3, §4, §5
Assay [10] deals with callus cultures derived from plants that carried the S4 mutation. Kind of assay: Callus growth on herbicide-supplemented medium. The assay is classed as cell-based, Nicotiana tabacum. The following applies: herbicide at 5 parts per billion (ppg) (14 nM). From the text: A plant heterozygous for the S4 mutation was constructed by a series of backcrosses of a plant regenerated from a herbicide-resistant tobacco cell line with plants of the parental variety (N. tabacum cv. Xanthi). Self-fertilization of this heterozygous individual yielded homozygous mutant, heterozygous, and homozygous normal progeny in the ratio of 1 to 2 to 1, respectively, which is expected for segregation of a single semidominant nuclear allele. The genotypes of these progeny plants were confirmed by analysis of a subsequent generation. Callus cultures were established as previously described from several of the genetically defined isolates produced by self-fertilization of the S4/+ heterozygote. […] Cell suspension cultures were initiated from these callus cultures and from the parental haploid cell line (H1) by transferring callus to a liquid C1 medium in which 2,4-dichlorophenoxyacetic acid (2 mg/L) had been substituted for napthaleneacetic acid and from which agar had been omitted. ALS activity was then assayed in extracts prepared from these cell suspension cultures as follows.

For `COc1nc(C)nc(NC(=O)NS(=O)(=O)c2ccccc2Cl)n1` [Chlorsulfuron, chlorsulfuron], the “% of control fresh weight” value came out at 86.7% in assay [1]; 83.5% in [2]; 1.3% in [3]; 11.5% in [4]; 96.5% in [5]; 27.5% in assay [6]. The “% of control fresh weight” value in assay [7] came to 32.1%. The “Fr. Wt.” value is given as 1896 ± 119 in assay [1]; 3453 ± 231 in assay [2]; 33 ± 2 in assay [3]; 309 ± 34 in assay [4]; 3171 ± 260 in assay [5]; 725 ± 95 in [6]. Besides, the “Fr. Wt.” value in assay [7] came to 1076 ± 108. Besides, in assay [5] (Nicotiana tabacum, 10 ppb (28 nM), homozygous mutant cell line, read-out: growth inhibited (percent)), the inhibition at 0.028 µM was under 5%. Further, the “Uninhibited activity (%) in the Presence of Chlorsulfuron” value is […] in assay [8] (10 ppb); […] in assay [8] (30 ppb); […] in [8] (100 ppb); 59% in assay [9] (10 ppb); 50% in assay [9] (30 ppb); 42% in [9] (100 ppb). Also, the “concentration inhibiting ALS activity 50 percent” value in assay [8] (homozygous mutant extract, not achieved at highest concentration tested, 90 min) is […]. Moreover, the IC50 in assay [8] (homozygous mutant extract, not achieved at highest concentration tested, read-out: concentration inhibiting ALS activity 50 percent) was […]. Further, in [10], the “growth on supplemented medium” value is given as “capable of growth”.
As for `COC(=O)c1ccccc1S(=O)(=O)NC(=O)Nc1nc(C)cc(C)n1` [Sulfometuron-methyl, sulfometuron-methyl], the “% of control fresh weight” value was 62.6% in [1]; 83.9% in [2]; 1.2% in [3]; 6.4% in [4]; 33.6% in assay [5]; 13.0% in assay [6]. Besides, the “% of control fresh weight” value in assay [7] stood at 26.5%. Also, the “Fr. Wt.” value in assay [1] came to 1369 ± 63; in assay [2], 3473 ± 323; in assay [3] it was 32 ± 2; in [4], 172 ± 14; in assay [5], 1105 ± 80; in [6], 344 ± 55. Moreover, the “Fr. Wt.” value in assay [7] was found to be 887 ± 92. In assay [3] (Nicotiana tabacum, 336 h, sulfometuron-methyl 1 ppb, Normal (H1) (Table 6), read-out: % of fresh weight at 0 ppb), the activity at 0.001 µg/mL was found to be 1.4%. For the same molecule, the activity at 0.01 µg/mL worked out at 1% in [3] (Nicotiana tabacum, 336 h, sulfometuron-methyl 10 ppb, Normal (H1) (Table 6), read-out: % of fresh weight at 0 ppb) and 34% in [5] (Nicotiana tabacum, 336 h, sulfometuron-methyl 10 ppb, S4/S4 (Table 6), read-out: % of fresh weight at 0 ppb). The “Fr. wt.” value in [3] (sulfometuron-methyl 1 ppb, Normal (H1) (Table 6)) was 39 ± 2 mg; in assay [3] (sulfometuron-methyl 10 ppb, Normal (H1) (Table 6)), 29 ± 1 mg; in assay [5] (sulfometuron-methyl 10 ppb, S4/S4 (Table 6)) it was 1105 ± 80 mg. Moreover, the “growth of S4/S4 mutant cell line” value in assay [5] (200 ppb sulfometuron-methyl) is recorded as “completely inhibits growth”. Further, the “resistance of mutant ALS activity to inhibition” value in assay [8] (mutant cell line versus parental activity) was “more resistant than the parental activity”. Moreover, the “growth on supplemented medium” value in assay [10] is given as “capable of growth”.

These data come from patent publication US4774381A, “Herbicide resistant tobacco” (E. I. Du Pont de Nemours and Company, priority 1985, dated 1988).
